Results: patent publication US4559323A, “A41030 Antibiotics” (Eli Lilly and Company, priority 1984, dated 1985)
Like-named read-outs stand apart in the source and are kept apart here.

Legend:
[1] = system: Streptococcus sp. (Group D); test: Agar-dilution MIC; type: cell-based; settings: Table 17, 24 hours
Text: (§1) The agar-dilution procedure described by the International Collaborative study (ICS) group was used to determine the minimum inhibitory concentrations (MIC's).

Streptococcus pneumoniae = test: Agar-dilution MIC; type: cell-based; settings: Table 17; 24 hours; Streptococcus pneumoniae Park I
Text: as §1

Streptococcus pyogenes = test: Agar-dilution MIC; type: cell-based; settings: Table 17; 24 hours; Streptococcus pyogenes C203
Text: as §1

[2] = system: Staphylococcus epidermidis; test: Agar-dilution MIC; type: cell-based; settings: Table 17, 24 hours
Text: as §1

B. thetaiotaomicron = type: cell-based; settings: Table 14; Bacteroides thetalotaomicron 1438
Text: as §1

[3] = system: Peptococcus asaccharolyticus; test: Agar-dilution MIC (anaerobes); type: cell-based; settings: Table 14; Peptococcus asaccharolyticus 1302
[4] = Electrometric titration (pKa); type: physicochemical; settings: electrometric titration in 66% dimethylformamide in water
Eubacterium aerofaciens = test: Agar-dilution MIC (anaerobes); type: cell-based; settings: Table 14; Eubacterium aerofaciens 1235
[5] = system: Peptostreptococcus anaerobius; test: Agar-dilution MIC (anaerobes); type: cell-based; settings: Table 14; Peptostreptococcus anaerobius 1428
[6] = system: Bacteroides melaninogenicus; test: Agar-dilution MIC (anaerobes); type: cell-based; settings: Table 14
Salmonella typhi = test: Agar-dilution MIC; type: cell-based; settings: Table 17, 24 hours
[7] = system: Fusobacterium necrophorum; test: Agar-dilution MIC (anaerobes); type: cell-based; settings: Table 14; Fusobacterium necrophorum 6054A
Fusobacterium symbiosum = test: Agar-dilution MIC (anaerobes); type: cell-based; settings: Table 14; Fusobacterium symbiosum 1470
Clostridium difficile [8] = type: cell-based; settings: Table 14; Clostridium difficile 2994
Clostridium difficile [9] = type: cell-based
Text: The A41030 antibiotic factors A, B, C, D, E, F, and G, are also active against a number of strains of Clostridium difficile, as determined by the agar-dilution method.

Clostridium perfringens = type: cell-based; settings: Table 14; Clostridium perfringens 81
Peptococcus prevoti = test: Agar-dilution MIC (anaerobes); type: cell-based; settings: Table 14; Peptococcus prevoti 1281
Bacteroides fragilis = test: Agar-dilution MIC (anaerobes); type: cell-based; settings: Table 14
Text: as §1

[10] = system: Peptostreptococcus intermedius; test: Agar-dilution MIC (anaerobes); type: cell-based; settings: Table 14; Peptostreptococcus intermedius 1264
Klebsiella pneumoniae = test: Agar-dilution MIC; type: cell-based; settings: Table 17; 24 hours; Klebsiella pneumoniae X26
Bacteroides corrodens = test: Agar-dilution MIC (anaerobes); type: cell-based; settings: Table 14; Bacteroides corrodens 1874
Propionibacterium acnes = test: Agar-dilution MIC (anaerobes); type: cell-based; settings: Table 14; Propionibacterium acnes 79
Text: Antibiotic A41030 factors A, B and C have also been tested and found to be active against a genus of anaerobic bacteria identified as Propionibacterium acnes.

Clostridium septicum = test: Agar-dilution MIC (anaerobes); type: cell-based; settings: Table 14; Clostridium septicum 1128
Hemophilus influenzae = test: Agar-dilution MIC; type: cell-based; settings: Table 17, 24 hours
Bacteroides vulgatis = test: Agar-dilution MIC (anaerobes); type: cell-based; settings: Table 14; Bacteroides vulgatis 1211
Solubility in solvents = type: physicochemical; settings: solvents as named
Text: The seven antibiotic factors are recovered from the fermentation and are obtained as a mixture, the A41030 complex. It will be recognized that the ratio of the factors in the A41030 complex will vary, depending upon the fermentation conditions used. The individual factors […], and G are separated and isolated as individual compounds, as hereinafter described.

Staph. aureus = test: Experimental bacterial infection in mice, subcutaneous ED50; type: in vivo; settings: two doses subcutaneously
Method: (§2) All of the A41030 factors tested have shown in vivo antimicrobial activity against experimental bacterial infections. When two doses of test compound were administered subcutaneously to mice in illustrative infections, the activity observed is measured as an ED50 value [effective dose in mg./kg. to protect fifty percent of the test animals: See Warren Wick, et al., J. Bacteriol. 81, 233-235 (1961)].

S. pneumoniae = test: as above; type: in vivo; settings: two doses subcutaneously
Method: as §2

S. pyogenes = test: as above; type: in vivo; settings: two doses subcutaneously
Method: as §2

Escherichia coli = test: Agar-dilution MIC; type: cell-based; settings: Table 17; 24 hours; Escherichia coli TEM
Staphylococcus aureus = test: Agar-dilution MIC; type: cell-based
[11] = Staphylococcus epidermidis EPI1
[12] = Staphylococcus epidermidis EPI2
[13] = Bacteroides melaninogenicus 2736
[14] = Table 16, C. difficile WAL-2112
[15] = Table 16, C. difficile WAL-3657
[16] = Table 16, C. difficile WAL-4268

Substance: A41030 factor G
- MIC ([1]; Streptococcus sp. Group D 9960): 4 µg/mL
- MIC ([1]; Streptococcus sp. Group D X66): 4 µg/mL
- MIC (Streptococcus pneumoniae): 2 µg/mL
- MIC (Streptococcus pyogenes): 2 µg/mL
- MIC [2, 11]: 0.5 µg/mL
- MIC [2, 12]: 0.5 µg/mL
- MIC (B. thetaiotaomicron): 64 µg/mL
- MIC [3]: 1.0 µg/mL
- pKa, first titratable group [4]: about 5.4
- pKa, second titratable group [4]: ~7.0
- MIC (Eubacterium aerofaciens): 2 µg/mL
- MIC [5]: ≤ 0.5 µg/mL
- MIC [6, 13]: 64 µg/mL
- MIC (Salmonella typhi; Salmonella typhi 1335): > 128 µg/mL
- MIC (Salmonella typhi; Salmonella typhi X514): > 128 µg/mL
- MIC [7]: 2 µg/mL
- MIC (Fusobacterium symbiosum): 2 µg/mL
- MIC (Clostridium difficile [8]): 2 µg/mL
- MIC (Clostridium difficile [9]; Table 16, C. difficile 78): 1.0 µg/mL
- MIC (Clostridium difficile [9]; Table 16, C. difficile 107B): 1.0 µg/mL
- MIC (Clostridium difficile [9]; Table 16, C. difficile 111F): 1.0 µg/mL
- MIC (Clostridium difficile [9]; Table 16, C. difficile 1153): 1.0 µg/mL
- MIC (Clostridium difficile [9]; Table 16, C. difficile 2634): 1.0 µg/mL
- MIC (Clostridium difficile [9]; Table 16, C. difficile 3424-5B): 1.0 µg/mL
- MIC (Clostridium difficile [9]; Table 16, C. difficile 3816): 1.0 µg/mL
- MIC (Clostridium difficile [9]; Table 16, C. difficile 3950): 1.0 µg/mL
- MIC (Clostridium difficile [9]; Table 16, C. difficile 6890): 1.0 µg/mL
- MIC (Clostridium difficile [9]; Table 16, C. difficile 8484): 1.0 µg/mL
- MIC (Clostridium difficile [9]; Table 16, C. difficile A-194): 1.0 µg/mL
- MIC (Clostridium difficile [9]; Table 16, C. difficile A-195): 1.0 µg/mL
- MIC (Clostridium difficile [9]; Table 16, C. difficile A-196): 1.0 µg/mL
- MIC (Clostridium difficile [9]; Table 16, C. difficile A-279): 1.0 µg/mL
- MIC (Clostridium difficile [9]; Table 16, C. difficile A-280): 1.0 µg/mL
- MIC (Clostridium difficile [9]; Table 16, C. difficile A-281): 1.0 µg/mL
- MIC (Clostridium difficile [9]; [14]): 1.0 µg/mL
- MIC (Clostridium difficile [9]; [15]): 1.0 µg/mL
- MIC (Clostridium difficile [9]; [16]): 1.0 µg/mL
- MIC (Clostridium perfringens): 2 µg/mL
- MIC (Peptococcus prevoti): 2 µg/mL
- MIC (Bacteroides fragilis; Bacteroides fragilis 111): 32 µg/mL
- MIC (Bacteroides fragilis; Bacteroides fragilis 1877): 32 µg/mL
- MIC (Bacteroides fragilis; Bacteroides fragilis 1936B): 64 µg/mL
- MIC [10]: 2 µg/mL
- MIC (Klebsiella pneumoniae): 64 µg/mL
- MIC (Bacteroides corrodens): 32 µg/mL
- MIC (Propionibacterium acnes): 1.0 µg/mL
- MIC (Clostridium septicum): 2 µg/mL
- MIC (Hemophilus influenzae; Haemophilus influenzae 76): 32 µg/mL
- MIC (Hemophilus influenzae; Haemophilus influenzae C.L.): 32 µg/mL
- MIC (Bacteroides vulgatis): 64 µg/mL
- Solubility (Solubility in solvents): soluble in the same solvents as is factor A

Substance: A41030 factor D
- ED50 (Staph. aureus): 0.339 mg/kg
- ED50 (S. pneumoniae): 2.21 mg/kg
- ED50 (S. pyogenes): 3.24 mg/kg
- MIC ([1]; Streptococcus sp. Group D 9960): 1 µg/mL
- MIC ([1]; Streptococcus sp. Group D X66): 1 µg/mL
- MIC (Streptococcus pneumoniae): 0.5 µg/mL
- MIC (Streptococcus pyogenes): 0.5 µg/mL
- MIC [2, 11]: 0.25 µg/mL
- MIC [2, 12]: 1 µg/mL
- MIC (B. thetaiotaomicron): 32 µg/mL
- MIC [3]: ≤ 0.125 µg/mL
- pKa, first titratable group [4]: about 5.5
- pKa, second titratable group [4]: ~7.6
- MIC (Eubacterium aerofaciens): 0.5 µg/mL
- MIC (Escherichia coli): 64 µg/mL
- MIC [5]: 0.5 µg/mL
- MIC (Staphylococcus aureus): 0.25 µg/mL
- MIC (Staphylococcus aureus; Table 17, 24 hours, Staphylococcus aureus S13E): 0.25 µg/mL
- MIC (Staphylococcus aureus; Table 17, 24 hours, Staphylococcus aureus V41): 0.25 µg/mL
- MIC (Staphylococcus aureus; Table 17, 24 hours, Staphylococcus aureus X400): 0.25 µg/mL
- MIC ([6]; Bacteroides melaninogenicus 1856/28): > 64 µg/mL
- MIC [6, 13]: 0.5 µg/mL
- MIC (Salmonella typhi; Salmonella typhi 1335): > 128 µg/mL
- MIC (Salmonella typhi; Salmonella typhi X514): > 128 µg/mL
- MIC [7]: ≤ 0.125 µg/mL
- MIC (Fusobacterium symbiosum): 0.5 µg/mL
- MIC (Clostridium difficile [9]): 0.5 µg/mL
- MIC (Clostridium difficile [9]; Table 16, C. difficile 78): ≤ 0.25 µg/mL
- MIC (Clostridium difficile [9]; Table 16, C. difficile 107B): ≤ 0.25 µg/mL
- MIC (Clostridium difficile [9]; Table 16, C. difficile 111F): ≤ 0.25 µg/mL
- MIC (Clostridium difficile [9]; Table 16, C. difficile 1153): 1.0 µg/mL
- MIC (Clostridium difficile [9]; Table 16, C. difficile 2634): 0.5 µg/mL
- MIC (Clostridium difficile [9]; Table 16, C. difficile 3424-5B): 0.5 µg/mL
- MIC (Clostridium difficile [9]; Table 16, C. difficile 3816): 0.5 µg/mL
- MIC (Clostridium difficile [9]; Table 16, C. difficile 3950): 0.5 µg/mL
- MIC (Clostridium difficile [9]; Table 16, C. difficile 6890): 0.5 µg/mL
- MIC (Clostridium difficile [9]; Table 16, C. difficile 8484): ≤ 0.25 µg/mL
- MIC (Clostridium difficile [9]; Table 16, C. difficile A-194): ≤ 0.25 µg/mL
- MIC (Clostridium difficile [9]; Table 16, C. difficile A-195): ≤ 0.25 µg/mL
- MIC (Clostridium difficile [9]; Table 16, C. difficile A-196): 0.5 µg/mL
- MIC (Clostridium difficile [9]; Table 16, C. difficile A-279): ≤ 0.25 µg/mL
- MIC (Clostridium difficile [9]; Table 16, C. difficile A-280): ≤ 0.25 µg/mL
- MIC (Clostridium difficile [9]; Table 16, C. difficile A-281): 0.5 µg/mL
- MIC (Clostridium difficile [9]; [14]): ≤ 0.25 µg/mL
- MIC (Clostridium difficile [9]; [15]): ≤ 0.25 µg/mL
- MIC (Clostridium difficile [9]; [16]): ≤ 0.25 µg/mL
- MIC (Clostridium perfringens): 0.5 µg/mL
- MIC (Peptococcus prevoti): 0.25 µg/mL
- MIC (Bacteroides fragilis; Bacteroides fragilis 111): 32 µg/mL
- MIC (Bacteroides fragilis; Bacteroides fragilis 1877): 32 µg/mL
- MIC (Bacteroides fragilis; Bacteroides fragilis 1936B): 32 µg/mL
- MIC [10]: 1.0 µg/mL
- MIC (Klebsiella pneumoniae): 128 µg/mL
- MIC (Bacteroides corrodens): 32 µg/mL
- MIC (Propionibacterium acnes): 0.25 µg/mL
- MIC (Clostridium septicum): 0.25 µg/mL
- MIC (Hemophilus influenzae; Haemophilus influenzae 76): 8 µg/mL
- MIC (Hemophilus influenzae; Haemophilus influenzae C.L.): 8 µg/mL
- MIC (Bacteroides vulgatis): 32 µg/mL
- Solubility (Solubility in solvents): soluble in the same solvents as factor A
